How the values were obtained:
[1] = molecular target: T1, Leucine-rich repeat serine/threonine-protein kinase 2 (Homo sapiens, UniProt Q5S007, G2019S); experiment: Binding affinity to human GST tagged truncated LRRK2 G2019S mutant incubated for 2 hrs by TR-FRET based Lanthascreen kinase activity assay
[2] = molecular target: T1, Leucine-rich repeat serine/threonine-protein kinase 2; experiment: Inhibition of recombinant human GST tagged truncated LRRK2 G2019S mutant using fluorescein-labeled LRRKtide as substrate in presence of ATP preincubated for 50 mins followed by anti-phospho-LRRKtide antibody addition and measured after 30 mins by TR-FRET based Lanthascreen kinase activity assay
[3] = molecular target: T2, Leucine-rich repeat serine/threonine-protein kinase 2 (Homo sapiens, UniProt Q5S007); experiment: Binding affinity to human LRRK2 WT incubated for 2 hrs by TR-FRET based Lanthascreen kinase activity assay
[4] = molecular target: T2, Leucine-rich repeat serine/threonine-protein kinase 2; experiment: Inhibition of recombinant human LRRK2 WT using fluorescein-labeled LRRKtide as substrate in presence of ATP preincubated for 50 mins followed by anti-phospho-LRRKtide antibody addition and measured after 30 mins by TR-FRET based Lanthascreen kinase activity assay
[5] = molecular target: T2, Leucine-rich repeat serine/threonine-protein kinase 2; experiment: Inhibition of LRRK2-pSer935 in LRRK2 WT expressing human HEK293 cells and measured after 48 hrs by ICW assay; type: cell-based
[6] = molecular target: T1, Leucine-rich repeat serine/threonine-protein kinase 2; experiment: Inhibition of LRRK2-pSer935 in LRRK2 G2019S mutant expressing human HEK293 cells and measured after 48 hrs by ICW assay; type: cell-based
[7] = molecular target: Proto-oncogene tyrosine-protein kinase receptor Ret (Homo sapiens) (UniProt P07949); experiment: Inhibition of RET (unknown origin) assessed as remaining activity using botin-anti-his and Lanthascreen Eu-streptavidin measured at 1 uM incubated for 2 hrs by TR-FRET based Lanthascreen kinase activity assay relative to control
[8] = molecular target: T3, NUAK family SNF1-like kinase 1 (Homo sapiens) (UniProt O60285); experiment: Inhibition of ARK5 (unknown origin) assessed as remaining activity using botin-anti-his and Lanthascreen Eu-streptavidin at 1 uM incubated for 2 hrs by TR-FRET based Lanthascreen kinase activity assay relative to control
T3 sequence (whole entry): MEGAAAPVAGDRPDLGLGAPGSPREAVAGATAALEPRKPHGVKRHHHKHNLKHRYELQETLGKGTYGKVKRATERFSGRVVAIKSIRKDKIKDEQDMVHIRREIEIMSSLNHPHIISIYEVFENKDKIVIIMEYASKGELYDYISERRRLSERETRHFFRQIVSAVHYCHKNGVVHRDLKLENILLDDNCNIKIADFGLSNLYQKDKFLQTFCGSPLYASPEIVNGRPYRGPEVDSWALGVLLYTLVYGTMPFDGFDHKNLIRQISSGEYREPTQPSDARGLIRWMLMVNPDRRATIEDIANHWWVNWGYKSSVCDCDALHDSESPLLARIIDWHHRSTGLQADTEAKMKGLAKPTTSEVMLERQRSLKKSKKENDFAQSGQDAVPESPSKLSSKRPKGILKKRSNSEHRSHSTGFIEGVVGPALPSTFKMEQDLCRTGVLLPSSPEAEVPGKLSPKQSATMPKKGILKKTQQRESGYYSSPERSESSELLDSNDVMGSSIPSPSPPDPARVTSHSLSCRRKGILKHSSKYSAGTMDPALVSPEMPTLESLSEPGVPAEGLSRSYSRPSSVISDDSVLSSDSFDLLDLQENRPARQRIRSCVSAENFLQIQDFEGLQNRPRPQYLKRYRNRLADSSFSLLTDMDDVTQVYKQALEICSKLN

[9] = Aqueous solubility of the compound; type: physicochemical; settings: buffer

Proto-oncogene tyrosine-protein kinase receptor Ret (Homo sapiens), sequence (P07949 whole entry): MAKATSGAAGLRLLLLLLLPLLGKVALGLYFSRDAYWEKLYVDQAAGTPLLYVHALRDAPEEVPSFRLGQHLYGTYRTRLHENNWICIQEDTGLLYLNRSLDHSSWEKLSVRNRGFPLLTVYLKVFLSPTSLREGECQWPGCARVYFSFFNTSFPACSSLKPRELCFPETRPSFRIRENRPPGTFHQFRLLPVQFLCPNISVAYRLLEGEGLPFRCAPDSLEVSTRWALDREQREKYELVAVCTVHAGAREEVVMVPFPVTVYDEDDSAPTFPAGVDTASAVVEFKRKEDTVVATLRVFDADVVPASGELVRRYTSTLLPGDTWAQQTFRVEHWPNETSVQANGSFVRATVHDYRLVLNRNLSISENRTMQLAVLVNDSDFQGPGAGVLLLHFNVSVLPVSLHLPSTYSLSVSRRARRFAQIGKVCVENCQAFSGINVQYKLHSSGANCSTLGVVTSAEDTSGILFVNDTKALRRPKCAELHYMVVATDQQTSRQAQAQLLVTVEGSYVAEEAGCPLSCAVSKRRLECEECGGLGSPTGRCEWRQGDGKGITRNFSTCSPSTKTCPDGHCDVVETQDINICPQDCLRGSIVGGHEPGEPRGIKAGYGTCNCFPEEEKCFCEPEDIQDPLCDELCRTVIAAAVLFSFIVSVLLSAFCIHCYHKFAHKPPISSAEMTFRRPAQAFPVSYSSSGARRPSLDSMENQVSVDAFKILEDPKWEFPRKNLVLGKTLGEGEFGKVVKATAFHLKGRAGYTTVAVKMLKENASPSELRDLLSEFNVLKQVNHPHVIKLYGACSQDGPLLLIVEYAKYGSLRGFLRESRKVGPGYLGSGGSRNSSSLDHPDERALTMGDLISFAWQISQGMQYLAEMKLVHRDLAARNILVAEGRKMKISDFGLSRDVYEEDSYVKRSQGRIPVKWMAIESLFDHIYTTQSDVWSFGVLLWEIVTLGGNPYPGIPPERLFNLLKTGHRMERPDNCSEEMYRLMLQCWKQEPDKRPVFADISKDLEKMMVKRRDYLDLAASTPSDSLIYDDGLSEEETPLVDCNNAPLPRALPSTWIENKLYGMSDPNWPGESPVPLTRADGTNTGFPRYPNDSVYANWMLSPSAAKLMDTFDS
T1 sequence (Q5S007 whole entry G2019S, the tested form may be a part): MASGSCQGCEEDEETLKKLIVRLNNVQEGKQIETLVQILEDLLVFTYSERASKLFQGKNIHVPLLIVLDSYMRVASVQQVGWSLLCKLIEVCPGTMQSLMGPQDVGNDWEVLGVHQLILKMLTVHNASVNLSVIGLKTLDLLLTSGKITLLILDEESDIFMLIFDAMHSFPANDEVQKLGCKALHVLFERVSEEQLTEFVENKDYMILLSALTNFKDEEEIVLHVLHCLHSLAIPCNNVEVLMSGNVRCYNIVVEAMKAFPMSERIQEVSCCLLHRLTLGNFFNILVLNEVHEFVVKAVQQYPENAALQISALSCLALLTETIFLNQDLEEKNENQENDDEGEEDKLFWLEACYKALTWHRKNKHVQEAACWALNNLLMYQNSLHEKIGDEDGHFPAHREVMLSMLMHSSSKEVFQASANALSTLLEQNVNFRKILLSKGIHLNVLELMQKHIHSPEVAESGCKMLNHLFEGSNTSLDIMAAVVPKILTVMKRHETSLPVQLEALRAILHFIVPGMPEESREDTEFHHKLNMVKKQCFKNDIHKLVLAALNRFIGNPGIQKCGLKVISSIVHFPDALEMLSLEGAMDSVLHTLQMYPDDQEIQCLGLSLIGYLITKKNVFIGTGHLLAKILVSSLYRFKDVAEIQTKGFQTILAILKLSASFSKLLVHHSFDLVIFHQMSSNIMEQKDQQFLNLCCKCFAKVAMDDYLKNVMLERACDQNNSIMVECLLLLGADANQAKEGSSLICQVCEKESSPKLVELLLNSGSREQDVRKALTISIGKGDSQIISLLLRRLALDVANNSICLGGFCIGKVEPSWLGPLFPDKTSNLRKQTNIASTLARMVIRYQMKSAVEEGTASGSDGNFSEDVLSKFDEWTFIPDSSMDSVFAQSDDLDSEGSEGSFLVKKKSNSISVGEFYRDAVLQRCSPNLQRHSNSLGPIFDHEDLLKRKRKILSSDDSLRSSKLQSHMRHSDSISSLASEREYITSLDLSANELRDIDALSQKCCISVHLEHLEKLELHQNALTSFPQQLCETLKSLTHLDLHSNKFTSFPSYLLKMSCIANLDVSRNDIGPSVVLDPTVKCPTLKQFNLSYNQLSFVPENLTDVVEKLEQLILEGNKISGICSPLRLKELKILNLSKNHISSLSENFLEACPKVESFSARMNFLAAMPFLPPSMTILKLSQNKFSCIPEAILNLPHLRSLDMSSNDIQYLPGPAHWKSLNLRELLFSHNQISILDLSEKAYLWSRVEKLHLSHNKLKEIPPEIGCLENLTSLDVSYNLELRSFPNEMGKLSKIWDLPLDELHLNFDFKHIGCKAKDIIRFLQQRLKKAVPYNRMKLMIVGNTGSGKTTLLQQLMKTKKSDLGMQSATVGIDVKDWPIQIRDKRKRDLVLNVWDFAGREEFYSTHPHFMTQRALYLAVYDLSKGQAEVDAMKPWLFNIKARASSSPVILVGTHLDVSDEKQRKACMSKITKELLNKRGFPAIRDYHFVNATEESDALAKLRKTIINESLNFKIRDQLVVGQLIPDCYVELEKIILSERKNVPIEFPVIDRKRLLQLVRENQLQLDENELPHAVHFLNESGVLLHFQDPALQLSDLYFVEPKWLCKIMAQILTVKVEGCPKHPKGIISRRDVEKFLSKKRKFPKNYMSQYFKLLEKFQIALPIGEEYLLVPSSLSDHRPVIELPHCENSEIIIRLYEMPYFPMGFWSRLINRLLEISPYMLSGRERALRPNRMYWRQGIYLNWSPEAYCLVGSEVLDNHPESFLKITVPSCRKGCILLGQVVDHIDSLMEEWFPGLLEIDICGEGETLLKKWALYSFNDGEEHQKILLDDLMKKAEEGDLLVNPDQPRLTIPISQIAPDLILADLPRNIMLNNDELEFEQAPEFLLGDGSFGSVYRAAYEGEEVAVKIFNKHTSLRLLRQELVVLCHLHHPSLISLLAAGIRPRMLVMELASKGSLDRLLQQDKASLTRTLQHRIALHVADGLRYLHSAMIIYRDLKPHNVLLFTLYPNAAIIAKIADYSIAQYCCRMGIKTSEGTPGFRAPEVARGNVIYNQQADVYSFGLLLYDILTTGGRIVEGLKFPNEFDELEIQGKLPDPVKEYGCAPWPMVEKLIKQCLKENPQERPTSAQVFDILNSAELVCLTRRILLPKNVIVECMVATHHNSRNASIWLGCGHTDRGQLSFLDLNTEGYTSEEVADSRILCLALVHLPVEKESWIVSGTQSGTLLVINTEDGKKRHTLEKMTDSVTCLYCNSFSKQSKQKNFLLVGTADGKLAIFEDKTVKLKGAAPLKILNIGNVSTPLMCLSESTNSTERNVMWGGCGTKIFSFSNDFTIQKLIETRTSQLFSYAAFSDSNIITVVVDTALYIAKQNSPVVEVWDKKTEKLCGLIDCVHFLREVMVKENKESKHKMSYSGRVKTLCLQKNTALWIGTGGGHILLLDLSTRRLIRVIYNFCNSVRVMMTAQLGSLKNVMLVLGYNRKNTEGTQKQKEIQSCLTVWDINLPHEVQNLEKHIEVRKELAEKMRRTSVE
T2 sequence (Q5S007 whole entry): as the sequence (Q5S007 whole entry G2019S, the tested form may be a part) above, with S2019G counted along it

Compound	Ki [1]	IC50 [2]	Ki [3]	IC50 [4]	IC50 [5]	IC50 [6]	Activity [7]	Activity [8]	solubility [9]
C[C@@H]1CCCN1c1cc2c(N)ncnc2n1C	0.439 µM	6.39 µM	0.164 µM	6.83 µM					
Cc1nn(C)cc1Nc1nc(N)c2c(C#N)c(N3CCC[C@H]3C)n(C)c2n1	0.002 µM	0.03 µM	0.001 µM	0.038 µM	0.19 µM	0.12 µM			
C[C@@H]1CCCN1c1c(C#N)c2c(N)nc(N)nc2n1C	0.013 µM	0.217 µM	0.006 µM	0.248 µM					
Cn1c(N2CCCC2)c(C#N)c2c(N)ncnc21	0.125 µM	1.91 µM	0.041 µM	1.48 µM					
Cn1c(-c2ccccc2)c(C#N)c2c(N)ncnc21	0.033 µM	0.483 µM	0.03 µM	1.26 µM					
C[C@@H]1CCCN1c1c(C#N)c2c(N)nc(Nc3cnn(C)c3)nc2n1C	0.0003 µM	0.005 µM	0.0001 µM	0.006 µM			103%	91%	
C[C@@H]1CCCN1c1c(C(N)=O)c2c(N)ncnc2n1C	0.154 µM	2.24 µM	0.077 µM	3.19 µM					
C[C@@H]1CCCN1c1c(C#N)c2c(N)ncnc2n1C	0.0007 µM	0.011 µM	0.0004 µM	0.015 µM			64%	93%	
Nc1ncnc2[nH]ncc12	11.3 µM	26.6 µM							
Cn1c(-c2cccc(F)c2F)c(C#N)c2c(N)ncnc21	0.011 µM	0.159 µM	0.014 µM	0.572 µM					
Cc1c(Nc2nc(N)c3c(C#N)c(N4CCC[C@H]4C)n(C)c3n2)cnn1C1COC1		0.037 µM		0.047 µM	0.3 µM	0.19 µM			
C[C@@H]1CCCN1c1c(C#N)c2c(N)nc(Nc3cn(C)nc3C(F)(F)F)nc2n1C		0.358 µM		0.508 µM	0.91 µM	0.46 µM			
C[C@@H]1CCCN1c1[nH]c2ncnc(N)c2c1C#N	0.014 µM	0.201 µM	0.004 µM	0.166 µM					
Cn1c(N)c(C#N)c2c(N)ncnc21	0.589 µM	8.56 µM	0.346 µM	14.4 µM					
Cn1c(-n2cccc2)c(C#N)c2c(N)ncnc21	1.98 µM		0.239 µM						Insoluble

Next, values leading:

Ki [1]	IC50 [2]	Ki [3]	IC50 [4]	IC50 [5]	IC50 [6]	Activity [7]	Activity [8]	solubility [9]	Compound
0.243 µM	3.53 µM	0.423 µM							Cn1c(NCc2ccccc2)c(C#N)c2c(N)ncnc21
	0.028 µM		0.044 µM	0.26 µM	0.18 µM				Cc1nn(C2CCOC2)cc1Nc1nc(N)c2c(C#N)c(N3CCC[C@H]3C)n(C)c2n1 (single isomer, unassigned)
	0.021 µM		0.034 µM	0.19 µM	0.054 µM				C[C@@H]1CCCN1c1c(C#N)c2c(N)nc(Nc3cn(C)nc3Cl)nc2n1C
	0.025 µM		0.038 µM	0.24 µM	0.14 µM				Cc1nn(C2COC2)cc1Nc1nc(N)c2c(C#N)c(N3CCC[C@H]3C)n(C)c2n1
0.794 µM		0.538 µM							C[C@@H]1CCCN1c1c(C#N)c2c(N)nc(Nc3cnn(C)c3)cc2n1C
0.013 µM	0.206 µM	0.006 µM	0.234 µM			27%	3%		C[C@@H]1CCCN1c1c(C#N)c2c(N)nc(Nc3ccn(C)n3)cc2n1C
	0.042 µM		0.049 µM	0.28 µM	0.18 µM				Cc1nn(CC(C)(C)O)cc1Nc1nc(N)c2c(C#N)c(N3CCC[C@H]3C)n(C)c2n1
	0.01 µM		0.016 µM	0.22 µM	0.12 µM				Cc1c(Nc2nc(N)c3c(C#N)c(N4CCC[C@H]4C)n(C)c3n2)cnn1CC1(O)COC1
0.259 µM	3.76 µM	0.111 µM	4.62 µM						CN(C)c1c(C#N)c2c(N)ncnc2n1C
	0.051 µM		0.057 µM	0.41 µM	0.25 µM				Cc1nn(CC2(O)COC2)cc1Nc1nc(N)c2c(C#N)c(N3CCC[C@H]3C)n(C)c2n1
0.12 µM	1.74 µM	0.145 µM	6.06 µM						Cn1c(NCc2ccccc2F)c(C#N)c2c(N)ncnc21
6.72 µM	15.8 µM								Nc1ncnc2nc[nH]c12 [ADENINE]
0.002 µM	0.027 µM	0.001 µM	0.042 µM			8%	-5%		Cc1n[nH]cc1Nc1nc(N)c2c(C#N)c(N3CCC[C@H]3C)n(C)c2n1
	0.035 µM		0.043 µM	0.28 µM	0.12 µM				Cc1c(Nc2nc(N)c3c(C#N)c(N4CCC[C@H]4C)n(C)c3n2)cnn1CC(C)(C)O
	0.012 µM		0.019 µM	0.14 µM	0.065 µM				Cc1nn(C2CCOC2)cc1Nc1nc(N)c2c(C#N)c(N3CCC[C@H]3C)n(C)c2n1 (mixture of isomers)
1.42 µM	3.35 µM								CN(C)c1ncnc2nc[nH]c12 [DIMETHYLADENINE]
0.003 µM	0.043 µM	0.002 µM	0.075 µM	0.31 µM	0.26 µM				Cc1c(Nc2nc(N)c3c(C#N)c(N4CCC[C@H]4C)n(C)c3n2)cnn1C
0.0004 µM	0.006 µM	0.0002 µM	0.006 µM			101%	97%		C[C@@H]1CCCN1c1c(C#N)c2c(N)nc(Nc3cn[nH]c3)nc2n1C
0.075 µM	1.29 µM	0.063 µM	2.11 µM			8%	-7%		Cc1cn(C)nc1Nc1cc2c(c(N)n1)c(C#N)c(N1CCC[C@H]1C)n2C
0.212 µM	3.08 µM	0.136 µM	5.66 µM						C[C@H]1CCCN1c1c(C#N)c2c(N)ncnc2n1C
0.002 µM	0.028 µM	0.0008 µM	0.034 µM			37%	65%		C[C@@H]1CCCN1c1c(C#N)c2c(N)nccc2n1C
